Measured values published in PubChem BioAssay (NCI).
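Protocol summary: plate cells (96-well), add compound at 5 concentrations, incubate 48 h, interpolate endpoints linearly. GI50: concentration for 50% inhibition of growth. TGI denotes the concentration required for complete inhibition of growth.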

What was measured:
Assay in all cases: DTP human tumour cell line panel, 48 h
NCI-H23 lung = system: NCI-H23 lung
NCI-H460 lung = system: NCI-H460 lung
NCI/ADR-RES ovarian = system: NCI/ADR-RES ovarian
OVCAR-3 ovarian = system: OVCAR-3 ovarian
OVCAR-4 ovarian = system: OVCAR-4 ovarian
OVCAR-5 ovarian = system: OVCAR-5 ovarian
RPMI-8226 leukemia = system: RPMI-8226 leukemia
RXF 393 renal = system: RXF 393 renal
SF-268 CNS = system: SF-268 CNS
SF-295 CNS = system: SF-295 CNS
SF-539 CNS = system: SF-539 CNS
SK-MEL-2 melanoma = system: SK-MEL-2 melanoma
SK-MEL-28 melanoma = system: SK-MEL-28 melanoma
SK-MEL-5 melanoma = system: SK-MEL-5 melanoma
SK-OV-3 ovarian = system: SK-OV-3 ovarian
SN12C renal = system: SN12C renal
SNB-19 CNS = system: SNB-19 CNS
SNB-75 CNS = system: SNB-75 CNS
SR leukemia = system: SR leukemia
SW-620 colon = system: SW-620 colon
TK-10 renal = system: TK-10 renal
U251 CNS = system: U251 CNS
UACC-257 melanoma = system: UACC-257 melanoma
UACC-62 melanoma = system: UACC-62 melanoma
UO-31 renal = system: UO-31 renal

CC1(C)CC[C@]23CC[C@]4(C)[C@H](CC[C@@H]5[C@@]6(C)CC[C@H](N)C(C)(C)[C@@H]6CC[C@]54C)[C@H]2[C@H]1OC3=O
TGI (NCI-H23 lung): 3220 nM | GI50 (NCI-H460 lung): 1640 nM | TGI (NCI-H460 lung): 3170 nM | GI50 (NCI/ADR-RES ovarian): 1800 nM | TGI (NCI/ADR-RES ovarian): 3610 nM | GI50 (OVCAR-3 ovarian): 1660 nM | TGI (OVCAR-3 ovarian): 3100 nM | GI50 (OVCAR-4 ovarian): 1940 nM | TGI (OVCAR-4 ovarian): 3860 nM | GI50 (OVCAR-5 ovarian): 1650 nM | TGI (OVCAR-5 ovarian): 3020 nM | GI50 (RPMI-8226 leukemia): 2100 nM | TGI (RPMI-8226 leukemia): 5260 nM | GI50 (RXF 393 renal): 1630 nM | TGI (RXF 393 renal): 3110 nM | GI50 (SF-268 CNS): 1690 nM | TGI (SF-268 CNS): 3360 nM | GI50 (SF-295 CNS): 1760 nM | TGI (SF-295 CNS): 3220 nM | GI50 (SF-539 CNS): 1680 nM | TGI (SF-539 CNS): 3050 nM | GI50 (SK-MEL-2 melanoma): 3020 nM | TGI (SK-MEL-2 melanoma): 9410 nM | GI50 (SK-MEL-28 melanoma): 1780 nM | TGI (SK-MEL-28 melanoma): 3180 nM | GI50 (SK-MEL-5 melanoma): 1750 nM | TGI (SK-MEL-5 melanoma): 3140 nM | GI50 (SK-OV-3 ovarian): 12100 nM | TGI (SK-OV-3 ovarian): 37300 nM | GI50 (SN12C renal): 1640 nM | TGI (SN12C renal): 3050 nM | GI50 (SNB-19 CNS): 1640 nM | TGI (SNB-19 CNS): 3050 nM | GI50 (SNB-75 CNS): 1360 nM | TGI (SNB-75 CNS): 2860 nM | GI50 (SR leukemia): 1590 nM | TGI (SR leukemia): 5080 nM | GI50 (SW-620 colon): 1440 nM | TGI (SW-620 colon): 2860 nM | GI50 (TK-10 renal): 1700 nM | TGI (TK-10 renal): 3490 nM | GI50 (U251 CNS): 1720 nM | TGI (U251 CNS): 3270 nM | GI50 (UACC-257 melanoma): 1800 nM | TGI (UACC-257 melanoma): 3430 nM | GI50 (UACC-62 melanoma): 1730 nM | TGI (UACC-62 melanoma): 3190 nM | GI50 (UO-31 renal): 1510 nM | TGI (UO-31 renal): 2870 nM
